Reference: ChEMBL document CHEMBL4513141, “CO-ADD screening of NIH (USA) - Clinical Collection” (2021)
Values after ≈ are worked out from the molar mass of the structure shown. Counter-ions that a name gives are not always drawn.

Experiments:
Acinetobacter baumannii = experiment: microbe, parasite or virus in culture; conditions: ATCC 19606, 18 h, ASSAY_TEST Inhibition of Bacterial Growth, detection method Absorption (OD600), MEDIA CAMHB, plate type 384well, NBS, CORNING #3640
Description: Antibacterial activity against Acinetobacter baumannii ATCC 19606 (CO-ADD:GN_034); MIC in CAMBH media using NBS plates, by OD600

Candida albicans = experiment: microbe, parasite or virus in culture; conditions: ATCC 90028, ASSAY_TEST Inhibition of Fungal Growth, detection method Absorption (OD530), plate type 384well, NBS, CORNING #3640
Description: Antifungal activity against Candida albicans ATCC 90028 (CO-ADD:FG_001); MIC in YNB media using NBS plates, by OD630

Escherichia coli = experiment: microbe, parasite or virus in culture; conditions: ATCC 25922, 18 h, ASSAY_TEST Inhibition of Bacterial Growth, detection method Absorption (OD600), MEDIA CAMHB, plate type 384well, NBS, CORNING #3640
Description: Antibacterial activity against Escherichia coli ATCC 25922 (CO-ADD:GN_001); MIC in CAMBH media using NBS plates, by OD(600)

Pseudomonas aeruginosa = experiment: microbe, parasite or virus in culture; conditions: ATCC 27853, 18 h, ASSAY_TEST Inhibition of Bacterial Growth, detection method Absorption (OD600), MEDIA CAMHB, plate type 384well, NBS, CORNING #3640
Description: Antibacterial activity against Pseudomonas aeruginosa ATCC 27853 (CO-ADD:GN_042); MIC in CAMBH media using NBS plates, by OD(600)

Klebsiella pneumoniae = experiment: microbe, parasite or virus in culture; conditions: ATCC 700603, 18 h, ASSAY_TEST Inhibition of Bacterial Growth, detection method Absorption (OD600), MEDIA CAMHB, plate type 384well, NBS, CORNING #3640
Description: Antibacterial activity against Klebsiella pneumoniae MDR ATCC 70063 (CO-ADD:GN_003); MIC in CAMBH media using NBS plates, by OD(600)

Staphylococcus aureus = experiment: microbe, parasite or virus in culture; conditions: ATCC 43300, 18 h, ASSAY_TEST Inhibition of Bacterial Growth, detection method Absorption (OD600), MEDIA CAMHB, plate type 384well, NBS, CORNING #3640
Description: Antibacterial activity against Staphylococcus aureus MRSA ATCC 43300 (CO-ADD:GP_020); MIC in CAMBH media, using NBS plates, by OD(600)

HEK293 = experiment: cells; assay type: functional, Homo sapiens, ATCC CRL1573; conditions: ASSAY_TEST Inhibition of Cell Viability, detection method Resazurin, Fluorescence (ex560/em590), MEDIA DMEM with 10% FBS, plate type 384well, TC, CORNING #3712, time 18 hr
[1] = Homo sapiens, ATCC CRL1573, HEK293

Description for Cryptococcus neoformans: Antifungal activity against Cryptococcus neoformans H99 ATCC 208821 (CO-ADD:FG_002); MIC in YNB media using NBS plates, by Resazurin OD(600-570)

SMILES	MIC (Cryptococcus neoformans)	MIC (Acinetobacter baumannii)	MIC (Candida albicans)	MIC (Escherichia coli)	MIC (Pseudomonas aeruginosa)	MIC (Klebsiella pneumoniae)	MIC (Staphylococcus aureus)	CC50 (HEK293; [1])	CC50 (HEK293)
Nc1ncn([C@@H]2O[C@H](CO)[C@@H](O)[C@H]2O)c(=O)n1 [AZACITIDINE]	> 10 µM	> 10 µM	> 10 µM	10 µM (≈ 2.44 µg/mL)	> 10 µM	> 10 µM	> 10 µM	> 10 µM	–
CC[C@H]1OC(=O)[C@H](C)[C@@H](O[C@H]2C[C@@](C)(OC)[C@@H](O)[C@H](C)O2)[C@H](C)[C@@H](O[C@@H]2O[C@H](C)C[C@H](N(C)C)[C@H]2O)[C@](C)(O)C[C@@H](C)CN(C)[C@H](C)[C@@H](O)[C@]1(C)O [AZITHROMYCIN]	> 10 µM	> 10 µM	> 10 µM	10 µM (≈ 7.49 µg/mL)	10 µM (≈ 7.49 µg/mL)	> 10 µM	> 10 µM	> 10 µM	–
CCc1oc2ccccc2c1C(=O)c1cc(Br)c(O)c(Br)c1 [BENZBROMARONE]	> 10 µM	> 10 µM	> 10 µM	> 10 µM	> 10 µM	> 10 µM	> 10 µM	> 10 µM	–
c1ccc(-c2ccc(C(c3ccccc3)n3ccnc3)cc2)cc1 (configuration not stated) [BIFONAZOLE]	10 µM (≈ 3.1 µg/mL)	> 10 µM	> 10 µM	> 10 µM	> 10 µM	> 10 µM	> 10 µM	> 10 µM	–
CCCCCCNC(=O)n1cc(F)c(=O)[nH]c1=O [CARMOFUR]	5 µM (≈ 1.29 µg/mL)	> 10 µM	> 10 µM	> 10 µM	> 10 µM	> 10 µM	2.5 µM (≈ 0.643 µg/mL)	> 10 µM	–
N[C@@H](C(=O)N[C@@H]1C(=O)N2C(C(=O)O)=C(Cl)CS[C@H]12)c1ccccc1 [CEFACLOR ANHYDROUS]	> 10 µM	> 10 µM	> 10 µM	> 10 µM	> 10 µM	> 10 µM	> 10 µM	> 10 µM	–
CO[C@@]1(NC(=O)Cc2cccs2)C(=O)N2C(C(=O)O)=C(COC(N)=O)CS[C@@H]21 [CEFOXITIN SODIUM]	> 10 µM	> 10 µM	> 10 µM	10 µM	> 10 µM	> 10 µM	> 10 µM	> 10 µM	–
COCc1c(C(C)C)nc(C(C)C)c(/C=C/[C@@H](O)C[C@@H](O)CC(=O)O)c1-c1ccc(F)cc1 [CERIVASTATIN SODIUM]	5 µM	> 10 µM	5 µM	> 10 µM	> 10 µM	> 10 µM	> 10 µM	> 10 µM	–
Oc1c(Cl)cc(Cl)c2cccnc12 [CHLOROXINE]	2.5 µM (≈ 0.535 µg/mL)	> 10 µM	1.25 µM (≈ 0.268 µg/mL)	> 10 µM	> 10 µM	> 10 µM	> 10 µM	> 10 µM	–
CC[C@H]1OC(=O)[C@H](C)[C@@H](O[C@H]2C[C@@](C)(OC)[C@@H](O)[C@H](C)O2)[C@H](C)[C@@H](O[C@@H]2O[C@H](C)C[C@H](N(C)C)[C@H]2O)[C@](C)(OC)C[C@@H](C)C(=O)[C@H](C)[C@@H](O)[C@]1(C)O [CLARITHROMYCIN]	> 10 µM	> 10 µM	> 10 µM	> 10 µM	10 µM (≈ 7.48 µg/mL)	> 10 µM	> 10 µM	> 10 µM	–
CC(C)/N=c1\cc2n(-c3ccc(Cl)cc3)c3ccccc3nc-2cc1Nc1ccc(Cl)cc1 [CLOFAZIMINE]	> 10 µM	> 10 µM	> 10 µM	> 10 µM	> 10 µM	> 10 µM	> 10 µM	–	0.31 µM
Clc1ccccc1C(c1ccccc1)(c1ccccc1)n1ccnc1 [CLOTRIMAZOLE]	1.25 µM (≈ 0.431 µg/mL)	> 10 µM	0.156 µM (≈ 0.0539 µg/mL)	> 10 µM	> 10 µM	> 10 µM	> 10 µM	> 10 µM	–
O=c1[nH]cnc2c1ncn2[C@H]1CC[C@@H](CO)O1 [DIDANOSINE]	> 10 µM	> 10 µM	> 10 µM	> 10 µM	> 10 µM	> 10 µM	> 10 µM	> 10 µM	–
COc1cccc2c1C(=O)c1c(O)c3c(c(O)c1C2=O)C[C@@](O)(C(=O)CO)C[C@@H]3O[C@H]1C[C@H](N)[C@H](O)[C@H](C)O1 [DOXORUBICIN HYDROCHLORIDE]	> 10 µM	> 10 µM	> 10 µM	> 10 µM	> 10 µM	> 10 µM	10 µM	> 10 µM	–
O=c1c2ccccc2[se]n1-c1ccccc1 [EBSELEN]	2.5 µM (≈ 0.685 µg/mL)	> 10 µM	5 µM (≈ 1.37 µg/mL)	> 10 µM	> 10 µM	> 10 µM	> 10 µM	> 10 µM	–
CCN1CCN(c2cc3c(cc2F)c(=O)c(C(=O)O)cn3C2CC2)CC1 [ENROFLOXACIN]	> 10 µM	5 µM (≈ 1.8 µg/mL)	> 10 µM	≤ 0.0781 µM	0.312 µM (≈ 0.112 µg/mL)	2.5 µM (≈ 0.899 µg/mL)	0.312 µM (≈ 0.112 µg/mL)	> 10 µM	–
COc1cccc2c1C(=O)c1c(O)c3c(c(O)c1C2=O)C[C@@](O)(C(=O)CO)C[C@@H]3O[C@H]1C[C@H](N)[C@@H](O)[C@H](C)O1 [EPIRUBICIN HYDROCHLORIDE]	> 10 µM	> 10 µM	> 10 µM	> 10 µM	> 10 µM	> 10 µM	10 µM	1.14 µM	–
COC(=O)Nc1nc2cc(C(=O)c3ccc(F)cc3)ccc2[nH]1 [FLUBENDAZOLE]	> 10 µM	> 10 µM	> 10 µM	> 10 µM	> 10 µM	> 10 µM	> 10 µM	7.02 µM	–
OC(Cn1cncn1)(Cn1cncn1)c1ccc(F)cc1F [FLUCONAZOLE]	> 10 µM	> 10 µM	2.5 µM (≈ 0.766 µg/mL)	> 10 µM	> 10 µM	> 10 µM	> 10 µM	> 10 µM	–
Nc1nc(=O)[nH]cc1F [FLUCYTOSINE]	0.625 µM (≈ 0.0807 µg/mL)	> 10 µM	0.625 µM (≈ 0.0807 µg/mL)	> 10 µM	> 10 µM	> 10 µM	> 10 µM	> 10 µM	–
O=c1[nH]cc(F)c(=O)[nH]1 [FLUOROURACIL]	5 µM (≈ 0.65 µg/mL)	> 10 µM	> 10 µM	> 10 µM	> 10 µM	> 10 µM	2.5 µM (≈ 0.325 µg/mL)	> 10 µM	–
CC(C)n1c(/C=C/C(O)CC(O)CC(=O)O)c(-c2ccc(F)cc2)c2ccccc21 (configuration not stated) [FLUVASTATIN]	> 10 µM	> 10 µM	5 µM (≈ 2.06 µg/mL)	> 10 µM	> 10 µM	> 10 µM	> 10 µM	> 10 µM	–
COc1c(N2CCNC(C)C2)c(F)cc2c(=O)c(C(=O)O)cn(C3CC3)c12 (configuration not stated) [GATIFLOXACIN]	> 10 µM	1.25 µM (≈ 0.469 µg/mL)	> 10 µM	≤ 0.0781 µM	0.625 µM (≈ 0.235 µg/mL)	2.5 µM (≈ 0.939 µg/mL)	0.312 µM (≈ 0.117 µg/mL)	> 10 µM	–
Oc1c(Cl)cc(Cl)c(Cl)c1Cc1c(O)c(Cl)cc(Cl)c1Cl [HEXACHLOROPHENE]	> 10 µM	> 10 µM	> 10 µM	> 10 µM	> 10 µM	> 10 µM	5 µM (≈ 2.03 µg/mL)	> 10 µM	–
